The assay deals with T1, Dimer of Gag-Pol polyprotein [491-589,Q496K] (Human immunodeficiency virus 1, UniProt P03369, Q496K).
T1 construct: 491-589
Briefly: Enzyme Inhibition Assay. The method, then: HIV-1 protease inhibitor activities were determined by the fluorescence resonance energy transfer (FRET) method. The energy transfer donor (EDANS) and acceptor (DABCYL) were labeled at two ends of peptide substrate to perform FRET. Fluorescence measurements were carried out on a fluorescence spectrophotometer. Excitation and emission wavelengths were set at 340 and 490 nm. Inhibitor binding dissociation constant Ki was obtained by nonlinear regression fitting to the plot of initial velocity as a function of inhibitor concentrations based on Morrison equation. The initial velocities were derived from the linear range of reaction curves.

For the molecule `COc1cccc(S(=O)(=O)N(C[C@H]2CCCO2)C[C@@H](O)[C@H](Cc2ccccc2)NC(=O)[C@@H]2CN(c3ccccc3)C(=O)O2)c1` [(5S)-N-[(1S,2R)-1-Benzyl-2-hydroxy-3-[[(3-methoxyphenyl)-sulfonyl][(R)-(tetrahydro-2-furanyl)methyl]amino]propyl]-2-oxo-3-phenyloxazolidine-5-carboxamide], the affinity corresponds to a Ki of 42 nM.

`COc1cccc(S(=O)(=O)N(C[C@H]2CCCO2)C[C@@H](O)[C@H](Cc2ccccc2)NC(=O)[C@@H]2CN(c3cccc(F)c3)C(=O)O2)c1` [(5S)-N-[(1S,2R)-1-Benzyl-2-hydroxy-3-[[(3-methoxyphenyl)-sulfonyl][(R)-(tetrahydro-2-furanyl)methyl]amino]propyl]-3-(3-fluorophenyl)-2-oxooxazolidine-5-carboxamide]: the inhibitory constant (Ki) (commonly a dissociation constant, usually derived from enzyme kinetics or from competition with a known ligand) was 150 nM.

For the origin of these results see BindingDB's records for doi:10.1021/jm060666p (University of Massachusetts Medical School, 2006).
